Measurements as given in patent US9695155B2, “Herbicidal substituted pyrimidinyloxy benzene compounds” (E. I. DU PONT DE NEMOURS AND COMPANY, priority 2013, dated 2017).

Key:
[1] = tested on: wild radish; assay: Test D postemergence; assay type: in vivo, Raphanus raphanistrum; conditions: Raphanus raphanistrum, post-emergence
Method in brief: (§1)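 Values are 0–100 visual control ratings (0 none, 100 complete) given 7–21 days after application. Soil for preemergence was silt loam; postemergence plants stood 2–18 cm tall.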

[2] = tested on: field violet; assay: Test D postemergence; assay type: in vivo, Viola arvensis; conditions: Viola arvensis, post-emergence
Method in brief: as §1

[3] = tested on: wild buckwheat; assay: Test D preemergence; assay type: in vivo, Polygonum convolvulus; conditions: Fallopia convolvulus, pre-emergence
Method in brief: as §1

[4] = tested on: chamomile; assay: Test D preemergence; assay type: in vivo, Matricaria inodora; conditions: Tripleurospermum inodorum, pre-emergence
Method in brief: as §1

[5] = tested on: oilseed rape; assay: Test D preemergence; assay type: in vivo, Brassica napus; conditions: Brassica napus, pre-emergence
Method in brief: as §1

[6] = tested on: deadnettle; assay: Test D postemergence; assay type: in vivo, Lamium amplexicaule; conditions: Lamium amplexicaule, post-emergence
Method in brief: as §1

[7] = tested on: wild oat; assay: Test D preemergence; assay type: in vivo, Avena fatua; conditions: Avena fatua, pre-emergence
Method in brief: as §1

[8] = tested on: green foxtail; assay: Test D postemergence; assay type: in vivo, Setaria viridis; conditions: Setaria viridis, post-emergence
Method in brief: as §1

[9] = tested on: speedwell; assay: Test D preemergence; assay type: in vivo, Veronica persica; conditions: Veronica persica, pre-emergence
Method in brief: as §1

[10] = tested on: windgrass; assay: Test D preemergence; assay type: in vivo, Apera spica-venti; conditions: Apera spica-venti, pre-emergence
Method in brief: as §1

[11] = tested on: wild mustard; assay: Test D preemergence; assay type: in vivo, Sinapis arvensis; conditions: Brassica, pre-emergence
Method in brief: as §1

[12] = tested on: wild mustard; assay: Test D postemergence; assay type: in vivo, Sinapis arvensis; conditions: Brassica, post-emergence
Method in brief: as §1

[13] = tested on: wild radish; assay: Test D preemergence; assay type: in vivo, Raphanus raphanistrum; conditions: Raphanus raphanistrum, pre-emergence
Method in brief: as §1

FC(F)(F)c1cn(-c2ccccc2Oc2ncc(Cl)cn2)nn1 [Compound 166, 5-chloro-2-[2-[4-(trifluoromethyl)-1H-1,2,3-triazol-1-yl]phenoxy]pyrimidine]
pest or weed control at 16 g/ha ([1]; 16 g ai/ha, scale 0-100, read-out: Plant response rating, Radish, Wild): 70% | pest or weed control at 31 g/ha ([1]; 31 g ai/ha, scale 0 to 100 (0 no effect, 100 complete control), read-out: Plant response rating, Radish, Wild): 70% | pest or weed control at 62 g/ha ([1]; 62 g ai/ha, scale 0 to 100 (0 no effect, 100 complete control), read-out: Plant response rating, Radish, Wild): 95% | pest or weed control at 125 g/ha ([1]; 125 g ai/ha, scale 0 to 100 (0 no effect, 100 complete control), read-out: Plant response rating, Radish, Wild): 95% | pest or weed control at 16 g/ha ([2]; 16 g ai/ha, scale 0-100, read-out: Plant response rating, Field Violet): 60% | pest or weed control at 31 g/ha ([2]; 31 g ai/ha, scale 0 to 100 (0 no effect, 100 complete control), read-out: Plant response rating, Field Violet): 65% | pest or weed control at 62 g/ha ([2]; 62 g ai/ha, scale 0 to 100 (0 no effect, 100 complete control), read-out: Plant response rating, Field Violet): 70% | pest or weed control at 125 g/ha ([2]; 125 g ai/ha, scale 0 to 100 (0 no effect, 100 complete control), read-out: Plant response rating, Field Violet): 85% | pest or weed control at 16 g/ha ([3]; 16 g ai/ha, scale 0 (no effect) to 100 (complete control), read-out: Plant response rating, Buckwheat, Wild): 60% | pest or weed control at 31 g/ha ([3]; 31 g ai/ha, scale 0-100, read-out: Plant response rating, Buckwheat, Wild): 95% | pest or weed control at 62 g/ha ([3]; 62 g ai/ha, scale 0-100, read-out: Plant response rating, Buckwheat, Wild): 100% | pest or weed control at 125 g/ha ([3]; 125 g ai/ha, scale 0-100, read-out: Plant response rating, Buckwheat, Wild): 100% | pest or weed control at 16 g/ha ([4]; 16 g ai/ha, scale 0 (no effect) to 100 (complete control), read-out: Plant response rating, Chamomile): 5% | pest or weed control at 31 g/ha ([4]; 31 g ai/ha, scale 0-100, read-out: Plant response rating, Chamomile): 25% | pest or weed control at 62 g/ha ([4]; 62 g ai/ha, scale 0-100, read-out: Plant response rating, Chamomile): 50% | pest or weed control at 125 g/ha ([4]; 125 g ai/ha, scale 0-100, read-out: Plant response rating, Chamomile): 55% | plant injury at 16 g/ha ([5]; 16 g ai/ha, scale 0 (no effect) to 100 (complete control), read-out: Plant response rating, Oilseed Rape): 35% | plant injury at 31 g/ha ([5]; 31 g ai/ha, scale 0-100, read-out: Plant response rating, Oilseed Rape): 50% | plant injury at 62 g/ha ([5]; 62 g ai/ha, scale 0-100, read-out: Plant response rating, Oilseed Rape): 100% | plant injury at 125 g/ha ([5]; 125 g ai/ha, scale 0-100, read-out: Plant response rating, Oilseed Rape): 100% | pest or weed control at 16 g/ha ([6]; 16 g ai/ha, scale 0-100, read-out: Plant response rating, Deadnettle): 40% | pest or weed control at 31 g/ha ([6]; 31 g ai/ha, scale 0 to 100 (0 no effect, 100 complete control), read-out: Plant response rating, Deadnettle): 60% | pest or weed control at 62 g/ha ([6]; 62 g ai/ha, scale 0 to 100 (0 no effect, 100 complete control), read-out: Plant response rating, Deadnettle): 65% | pest or weed control at 125 g/ha ([6]; 125 g ai/ha, scale 0 to 100 (0 no effect, 100 complete control), read-out: Plant response rating, Deadnettle): 70% | pest or weed control at 16 g/ha ([7]; 16 g ai/ha, scale 0 (no effect) to 100 (complete control), read-out: Plant response rating, Oat, Wild): 0% | pest or weed control at 31 g/ha ([7]; 31 g ai/ha, scale 0-100, read-out: Plant response rating, Oat, Wild): 30% | pest or weed control at 62 g/ha ([7]; 62 g ai/ha, scale 0-100, read-out: Plant response rating, Oat, Wild): 55% | pest or weed control at 125 g/ha ([7]; 125 g ai/ha, scale 0-100, read-out: Plant response rating, Oat, Wild): 75% | pest or weed control at 16 g/ha ([8]; 16 g ai/ha, scale 0-100, read-out: Plant response rating, Foxtail, Green): 10% | pest or weed control at 31 g/ha ([8]; 31 g ai/ha, scale 0 to 100 (0 no effect, 100 complete control), read-out: Plant response rating, Foxtail, Green): 15% | pest or weed control at 62 g/ha ([8]; 62 g ai/ha, scale 0 to 100 (0 no effect, 100 complete control), read-out: Plant response rating, Foxtail, Green): 20% | pest or weed control at 125 g/ha ([8]; 125 g ai/ha, scale 0 to 100 (0 no effect, 100 complete control), read-out: Plant response rating, Foxtail, Green): 35% | pest or weed control at 16 g/ha ([9]; 16 g ai/ha, scale 0 (no effect) to 100 (complete control), read-out: Plant response rating, Speedwell): 100% | pest or weed control at 31 g/ha ([9]; 31 g ai/ha, scale 0 (no effect) to 100 (complete control), read-out: Plant response rating, Speedwell): 100% | pest or weed control at 62 g/ha ([9]; 62 g ai/ha, scale 0-100, read-out: Plant response rating, Speedwell): 100% | pest or weed control at 125 g/ha ([9]; 125 g ai/ha, scale 0-100, read-out: Plant response rating, Speedwell): 100% | pest or weed control at 16 g/ha ([10]; 16 g ai/ha, scale 0 (no effect) to 100 (complete control), read-out: Plant response rating, Windgrass): 50% | pest or weed control at 31 g/ha ([10]; 31 g ai/ha, scale 0 (no effect) to 100 (complete control), read-out: Plant response rating, Windgrass): 75% | pest or weed control at 62 g/ha ([10]; 62 g ai/ha, scale 0-100, read-out: Plant response rating, Windgrass): 100% | pest or weed control at 125 g/ha ([10]; 125 g ai/ha, scale 0-100, read-out: Plant response rating, Windgrass): 100% | pest or weed control at 16 g/ha ([11]; 16 g ai/ha, scale 0 (no effect) to 100 (complete control), read-out: Plant response rating, Mustard, Wild): 65% | pest or weed control at 31 g/ha ([11]; 31 g ai/ha, scale 0-100, read-out: Plant response rating, Mustard, Wild): 95% | pest or weed control at 62 g/ha ([11]; 62 g ai/ha, scale 0-100, read-out: Plant response rating, Mustard, Wild): 100% | pest or weed control at 125 g/ha ([11]; 125 g ai/ha, scale 0-100, read-out: Plant response rating, Mustard, Wild): 100% | pest or weed control at 16 g/ha ([12]; 16 g ai/ha, scale 0-100, read-out: Plant response rating, Mustard, Wild): 75% | pest or weed control at 31 g/ha ([12]; 31 g ai/ha, scale 0 to 100 (0 no effect, 100 complete control), read-out: Plant response rating, Mustard, Wild): 80% | pest or weed control at 62 g/ha ([12]; 62 g ai/ha, scale 0 to 100 (0 no effect, 100 complete control), read-out: Plant response rating, Mustard, Wild): 85% | pest or weed control at 125 g/ha ([12]; 125 g ai/ha, scale 0 to 100 (0 no effect, 100 complete control), read-out: Plant response rating, Mustard, Wild): 100% | pest or weed control at 16 g/ha ([13]; 16 g ai/ha, scale 0 (no effect) to 100 (complete control), read-out: Plant response rating, Radish, Wild): 55% | pest or weed control at 31 g/ha ([13]; 31 g ai/ha, scale 0 (no effect) to 100 (complete control), read-out: Plant response rating, Radish, Wild): 80% | pest or weed control at 62 g/ha ([13]; 62 g ai/ha, scale 0-100, read-out: Plant response rating, Radish, Wild): 100% | pest or weed control at 125 g/ha ([13]; 125 g ai/ha, scale 0-100, read-out: Plant response rating, Radish, Wild): 100%
